This is an account of results in patent publication US20230069586A1, “METHODS OF USING ANDROGRAPHOLIDE, ORIDONIN AND ISOLIQUIRITIGENIN AND DERIVATIVES THEREOF” (THE REGENTS OF THE UNIVERSITY OF CALIFORNIA, priority 2020, published 2023).

For assay [1], the system named is human β-defensin 3 (hBD3) peptide. The assay can be described thus: hBD3 peptide expression in hTCEpi cells, ELISA of supernatant. It counts as cell-based. As to conditions: increasing concentrations, 48 hours. As for the experimental part: hTCEpi cells were seeded into a 6-well plate coated with FNC material and allowed to grow to 80% confluence. The cells were subsequently treated with increasing concentrations of andrographolide (10, 25, 50, 75, 100 μM), oridonin (1, 2, 5, 10, 15 μM), isoliquiritigenin (5, 10, 15, 25, 50 μM) for 48 hours, and a negative control (vehicle: DMSO or EtOH). After treatment, the supernatant was collected and 100 μl was used to quantify hBD3 peptide concentration (Defensin 3, beta (human) ELISA Kit, Phoenix Pharmaceuticals Inc) and performed in duplicate for each treatment. An hBD3 peptide standard curve was generated from the ELISA kit reagents. The concentration of each experimental well was determined from the linear regression equation generated from the absorbance values of the hBD3 standards. […] It is important to note that the majority of the AMP research fails to detect peptide concentrations from both in vitro and in vivo experiments despite observing upregulation at the mRNA level and the ability to augment antimicrobial activity of cells in either context.

For assay [2], the system named is DEFB103 (Human β-defensin 3) mRNA expression. The assay can be described thus: DEFB103 (human β-defensin 3) mRNA expression in hTCEpi cells, quantitative PCR. It counts as cell-based. Particulars: hTCEpi corneal epithelial cells, treated individually, 24 hours. As to the method:
Telomerase immortalized human corneal epithelial cells (hTCEpi cells, passage 40-50) were grown in 6-well plates to 80-90% confluence. Cells were treated with andrographolide, oridonin, isoliquiritigenin (Selleck Chem) individually for 24 hours, at concentrations previously determined to have no effect on cellular viability based on cell morphology, MTT assay and RNA yield. Vehicle control type was based on manufacturers' diluent recommendation and concentration was equivalent to the diluent concentration in the highest treatment (andrographolide and oridonin: DMSO, isoliquiritigenin: ethanol). After 24 hours, media was aspirated from each well and washed with sterile PBS. Total RNA was extracted (GeneJet) and quantified (NanoDrop). Approximately 50 ng of total RNA from each sample was reverse transcribed and quantitative PCR was performed using […] for DEFB103 (ThermoFisher), and GAPDH specific aptamers were used as a control. Expression of DEFB103 was calculated using the 2^-ddCt method. A one-way ANOVA was performed to determine statistical significance with a post-hoc test to determine individual differences.
Separate time course experiments were performed as described above, where data points were taken at 2, 6, 12, and 24 hours.

On to `O=C(/C=C/c1ccc(O)cc1)c1ccc(O)cc1O` [isoliquiritigenin], for which the hBD3 peptide expression result in assay [1] was “below the limit of detection”. Moreover, the “increase of human β-defensin 3 mRNA expression over vehicle control alone” value (from here on “increase”) in assay [2] is 9-10 fold.

For the molecule oridonin, the hBD3 peptide expression result in assay [1] is reported as “below the limit of detection”. For the same molecule, the “increase” value in assay [2] turned out to be 4 fold.

Take `C=C1CC[C@@H]2[C@](C)(CO)[C@H](O)CC[C@@]2(C)[C@@H]1C/C=C1/C(=O)OC[C@H]1O` [andrographolide]: the hBD3 peptide expression entry in assay [1] is given as “markedly upregulated in a dose-dependent manner”. Also, in assay [2], the “increase” value is reported as 360 fold.
